In PubChem BioAssay (NCI):
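Grown in 96-well plates, cells were treated for 48 hours with each compound at five concentrations. Insufficient inhibition: endpoint recorded as highest concentration tested. GI50 marks 50% less growth. The concentration for full growth arrest is given as TGI.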

Experiments:
Assay in all cases: DTP human tumour cell line panel, 48 h
HCT-15 colon = tested on: HCT-15 colon
OVCAR-5 ovarian = tested on: OVCAR-5 ovarian
SK-MEL-28 melanoma = tested on: SK-MEL-28 melanoma
HS 578T breast = tested on: HS 578T breast
SF-268 CNS = tested on: SF-268 CNS
SN12C renal = tested on: SN12C renal
NCI-H522 lung = tested on: NCI-H522 lung
CCRF-CEM leukemia = tested on: CCRF-CEM leukemia
UACC-257 melanoma = tested on: UACC-257 melanoma
MDA-N = tested on: MDA-N

SMILES | TGI (HCT-15 colon) [µM] | TGI (OVCAR-5 ovarian) [µM] | TGI (SK-MEL-28 melanoma) [µM] | TGI (HS 578T breast) [µM] | TGI (SF-268 CNS) [µM] | TGI (SN12C renal) [µM] | TGI (NCI-H522 lung) [µM] | TGI (CCRF-CEM leukemia) [µM] | GI50 (HCT-15 colon) [µM] | GI50 (SK-MEL-28 melanoma) [µM] | GI50 (SN12C renal) [µM] | GI50 (CCRF-CEM leukemia) [µM] | TGI (UACC-257 melanoma) [µM] | TGI (MDA-N) [µM] | GI50 (OVCAR-5 ovarian) [µM] | GI50 (MDA-N) [µM]
CN(C)CCNc1c([N+](=O)[O-])sc2ccc(Cl)cc12 | > 100 | > 100 | > 100 | > 100 | > 100 | > 100 | 87.4 | > 100 | – | – | – | – | – | – | – | –
CCN1CCN(Cc2ccc(NC(=O)Nc3ccc(-n4ccc5c(NC(=O)c6ccccc6)nccc54)cc3)cc2C(F)(F)F)CC1 | 1.81 | – | 3.07 | – | – | > 20.7 | – | > 100 | 0.227 | 1.62 | 3.17 | 0.426 | – | – | – | –
COc1cc2c3c(cc(Cl)nc3c1OC)C(=O)C(=O)N2 | 40.8 | 32.2 | 33.7 | > 100 | 31.6 | 21 | 14.9 | 8.21 | – | – | – | – | 21.9 | – | – | –
CC1CCc2sc3nc4n(c(=O)c3c2C1)CC(C)S4 (centres undefined) | > 100 | 92.7 | 83.1 | > 100 | > 100 | 53.7 | > 100 | – | – | – | – | – | 50.9 | 92.8 | – | –
N#C/C(=C\c1cccc(Br)c1)c1nc2ccccc2c(=O)[nH]1 | > 100 | > 100 | > 100 | – | > 100 | > 100 | > 100 | > 100 | – | – | – | – | > 100 | > 100 | – | –
C=C1C[C@@H]2CC[C@@]34C[C@H]5O[C@H]6[C@@H](O3)[C@H]3O[C@H](CC[C@@H]3O[C@H]6[C@H]5O4)CC(=O)C[C@@H]3[C@@H](OC)[C@@H](C[C@H](O)CN)O[C@H]3C[C@H]3O[C@@H](CC[C@@H]1O2)C[C@@H](C)C3=C | > 0.76 | > 1 | > 1 | > 0.187 | > 1 | > 1 | 0.0412 | – | – | – | – | – | > 1 | 0.000354 | 0.00251 | 0.0001
